# In US20100196308A1, “VITAMIN D3 AND ANALOGS THEREOF FOR ALLEVIATING SIDE EFFECTS ASSOCIATED WITH CHEMOTHERAPY” (priority 2009, published 2010):
# Experiments:
# [1] = tested on: bone marrow progenitors; assay: Bone marrow cultures (colony counts) from chemotherapy-treated chloroleukemic rats
# Protocol: To assay the Colony-Forming Activity of bone marrow progenitors and MIAC51 cells, bone marrow cells are obtained as previously described (Jimenez and Yunis, 1988), and are washed with serum free DMEM. Cells are then suspended to a concentration of 1×10^6/mL and layered onto a gradient for centrifugation for 40 minutes at 400 g. The pellet found between the medium and gradient is then carefully aspirated and washed in serum free DMEM two times. Finally, a cell suspension containing 1×10^5 cells/mL is prepared in DMEM supplemented with 10% fetal bovine serum, and incubated in tissue culture plates for 3 hours. The non-adherent cells are aspirated and transferred to semi-solid agar culture plates.
# To prepare semi-solid agar medium, powdered MEM is reconstituted in tissue-culture grade water to a concentration of 2×. Agar (0.3%) is then added and the mixture is boiled until the agar is fully dissolved (Perkins and Yunis, 1986). The medium is cooled to 37° C. and essential amino acids which might have been depleted during the boiling process are then added. The semi-solid medium is then distributed onto multi-well clusters, filling one well with tissue culture grade water to avoid further evaporation. At this point, G- or GM-CSF are added following manufacturer's procedure, and the bone marrow cell suspension or MIAC51 cells are added by careful pipetting in order to avoid bubbles. Colonies are counted 7 days later.
# Bone marrow cultures were performed on days 22, 25 and 32. On day 32, a complete leukocyte count was performed in all animals and those who were positive for MIAC51 were sacrificed.
# [2] = tested on: Long Evans rats injected with MIAC51; assay: Absolute neutrophil counts in chloroleukemic rats under chemotherapy regimens; settings: for Nadir ANC without calcitriol treatment: chemotherapy + vehicle
# Protocol: For the first cycle of experiments, 15-day old Long Evans rats were injected with MIAC51. […] Starting on day 20 through 32, complete granulocyte counts were then performed by puncturing the tail vein with a 27 gauge syringe while animals were manually restrained.
# Neutrophil counts were measured by puncturing the tail vein as described above. […] On day 52, rats were randomized into 3 groups for each chemotherapy regimen.
# [3] = Viability of myeloid cells by trypan blue exclusion; assay type: cell-based; settings: human, 24-hour exposure, RPMI 1640 with 10% fetal calf serum (FIG. 2)
# Protocol: Varying doses of 1,25(OH)2D3 were applied to the myeloid cells. A graph of the effects of 1,25(OH)2D3 on myeloid cells is provided as FIG. 2. The viability of the myeloid cells was determined by trypan blue exclusion after a 24-hour exposure to varying doses of 1,25(OH)2D3. For these experiments, 2.5×10^5 cells/mL were incubated with different doses of 1,25(OH)2D3 (0.01 μg/mL, 0.1 μg/mL, 0.5 μg/mL, 0.75 μg/mL, 1 μg/mL, and 10 μg/mL) for 24 hours in RPMI 1640 supplemented with 10% fetal calf serum.
# [4] = tested on: Peripheral circulating progenitor stem cells; assay: Colony formation assay in semi-solid agar medium with GM-CSF and G-CSF; assay type: cell-based, human; settings: Group 2: 0.05 μg/mL 1,25(OH)2D3 for 24 hours, no 4-HC; mean ± SD, quadruplicates
# Source text: Tissue culture grade agar, fetal calf serum (FCS), and powdered Dulbecco's Modified Eagle's Medium (DMEM) were obtained from Invitrogen (Carlsbad, Calif.). Peripheral circulating progenitor stem cells were obtained by venipuncture of the saphenous vein of a healthy donor into sodium heparin vacutainers (Becton, Dickinson and Company, Franklyn Lakes N.J.). The buffy coat was obtained by gradient centrifugation using histopaque 1077 as per manufacturer's instructions. Cells were washed twice with RMPI 1640 supplemented with 10% fetal calf serum (Invitrogen). […] Cells were cultured for 14 days in a 5% CO2 incubator, with 100% humidity at 37° C. At the end of the culture period, colonies (clusters of 50 or more cells) were counted using an inverted microscope by two independent viewers. Peripheral stem cells were randomized into 4 groups at a concentration of 5×10^5 cells/mL in DMEM supplemented with 10% fetal calf serum. Group 1 was an untreated control, group 2 was incubated for 24 hours with 0.05 μg/mL of 1,25(OH)2D3, group 3 was incubated for 24 hours with 0.05 μg/mL of 1,25(OH)2D3, group 4 was untreated. Cells were washed with DMEM 10% fetal calf serum. Groups 3 and 4 were then incubated with 25 μg/mL of 4-HC for 20 hours. Subsequently, all groups were washed twice as previously described. Cells were then plated in semi-solid agar medium as described above.
# [5] = Calcium levels in chemotherapy-treated chloroleukemic rats
# Source text: On days 22, 26, 49 and 53, blood from 3 animals is collected by cardiac puncture. All blood samples are collected in a vial for analysis of calcium levels. All animals used for bone marrow cultures are anesthetized and exsanguinated prior to obtaining the bone marrow.
# [6] = tested on: MIAC51; settings: stated in the power analysis of Example 2
# Protocol: Sprague Dawley rats (10-day old rat pups, preferably of natural litters) are used in this study. […] Thus, in rats the onset of neutropenia as judged by the nadir of ANC has been well characterized.
# To obtain a power of 0.8 and a=0.05 with an absolute difference of 20%, 36 animals per group may be needed. […] According to power analysis, the minimum sample size to achieve statistical significance is 36 animals. Therefore, 4 more animals are added to each group to account for model attrition rate of 10%.
compound,measurement,setting,value
"C=C1/C(=C\C=C2/CCC[C@]3(C)[C@@H]([C@H](C)CCCC(C)(C)O)CC[C@@H]23)C[C@@H](O)C[C@@H]1O [calcitriol, 1,25-dihydroxyvitamin D3]",colony count of bone marrow cultures,"[1]; day 22, first cycle, cyclophosphamide and calcitriol (FIG. 4a)",56±17 colonies
same,colony count of bone marrow cultures,"[1]; day 25, first cycle, cyclophosphamide and calcitriol (FIG. 5a)",80±15 colonies
same,colony count of bone marrow cultures,"[1]; day 40 (so in the source), second cycle, cyclophosphamide and calcitriol",82±25 colonies
same,colony count of bone marrow cultures,"[1]; day 52, second cycle, cyclophosphamide and calcitriol",86±25 colonies
same,Nadir ANC with calcitriol treatment,"[2]; first cycle, 10 μg calcitriol pulse, cyclophosphamide (150 mg/kg) regimen",2154 ± 147/mm^3
same,Nadir ANC with calcitriol treatment,"[2]; first cycle, 10 μg calcitriol pulse, cyclophosphamide and doxorubicin (100 mg/kg, 25 mg/kg) regimen",2365 ± 145/mm^3
same,Nadir ANC with calcitriol treatment,"[2]; first cycle, 10 μg calcitriol pulse, cyclophosphamide, doxorubicin and paclitaxel (100, 25, 10 mg/kg) regimen",2365 ± 125/mm^3
same,effect on nadir ANC,"[2]; first cycle, all three chemotherapy regimens",significantly decreases the nadir ANC
same,Nadir ANC with calcitriol treatment,"[2]; second cycle, 20 μg calcitriol, cyclophosphamide and doxorubicin regimen",2417 ± 136/mm^3
same,Nadir ANC with calcitriol treatment,"[2]; second cycle, 20 μg calcitriol, cyclophosphamide regimen",2451 ± 235/mm^3
same,Nadir ANC with calcitriol treatment,"[2]; second cycle, 20 μg calcitriol, cyclophosphamide, doxorubicin and paclitaxel regimen",2364 ± 136/mm^3
same,protection against chemotherapy-induced neutropenia,"[2]; second cycle, all three chemotherapy regimens",significantly protects against chemotherapy-induced neutropenia in all three chemotherapy regimens
same,"viability at 24 h, 0.05 μg/mL",[3],90%
same,Colony Counts at 14 Days,[4],48 ± 6
same,hypercalcemia,"[5]; rat, in vivo",did not induce hypercalcemia
Cyclophosphamide,colony count of bone marrow cultures,"[1]; day 22, first cycle, cyclophosphamide and vehicle",5±1 colonies
same,colony count of bone marrow cultures,"[1]; day 25, first cycle, cyclophosphamide and vehicle",12±4 colonies
same,colony count of bone marrow cultures,"[1]; day 40 (so in the source), second cycle, cyclophosphamide and vehicle",4.5±1 colonies
same,colony count of bone marrow cultures,"[1]; day 52, second cycle, cyclophosphamide-treated",7±2.5 colonies
same,Nadir ANC without calcitriol treatment,[2]; first cycle,245 ± 25/mm^3
same,Nadir ANC without calcitriol treatment,[2]; second cycle,236 ± 32/mm^3
same,Remission rate,[6],at least 20%
same,Calcium Levels,"[5]; Day 22, Chemo + Vehicle",11 ± 0.3 mg/dL
same,Calcium Levels,"[5]; Day 25, Chemo + Vehicle",9.5 ± 0.2 mg/dL
same,Calcium Levels,"[5]; Day 32, Chemo + Vehicle",9.5 ± 0.5 mg/dL
same,Calcium Levels,"[5]; Day 49, Chemo + Vehicle",11 ± 0.2 mg/dL
same,Calcium Levels,"[5]; Day 52, Chemo + Vehicle",10 ± 0.5 mg/dL
same,Calcium Levels,"[5]; Day 60, Chemo + Vehicle",11 ± 0.4 mg/dL
